Drawing on ChEMBL document CHEMBL5247631, “Ferroptosis-related small-molecule compounds in cancer therapy: Strategies and applications” (Eur J Med Chem, 2022), this text covers IC50 and Activity for 14 compounds.

A short description of test [1]: Anticancer activity against human U87 cells assessed as reduction in cell viability incubated for 72 hrs by MTT assay. The test is classed as functional, cell-based, U-87MG ATCC. The conditions noted are these: U-87 MG. A general note: Tetrazolium dyes change colour on reduction, which living cells bring about.
The next test relates to THP-1. The experiment in a line: Anticancer activity against human THP-1 cells assessed as reduction in cell viability incubated for 72 hrs by MTT assay. The test is classed as functional, cell-based. The conditions noted are these: THP-1, 72 h.
The test system of the next test is HEp-2. The experiment in a line: Anticancer activity against human HEp-2 cells assessed as reduction in cell viability incubated for 72 hrs by MTT assay. The conditions noted are these: HEp-2, 72 h. The test is classed as functional, cell-based.
The next test has as its system A 172. As to the kind of experiment: Anticancer activity against human A-172 cells assessed as reduction in cell viability incubated for 72 hrs by MTT assay. The test is classed as functional, cell-based. The conditions noted are these: A 172, 72 h.
A further test concerns HL-60. The experiment in a line: Anticancer activity against human HL-60 cells assessed as reduction in cell viability incubated for 72 hrs by MTT assay. The conditions noted are these: HL-60, 72 h. The format is functional, cell-based.
For the next test, the system named is CNE. The experiment in a line: Anticancer activity against human CNE cells assessed as reduction in cell viability incubated for 72 hrs by MTT assay. The test is classed as functional, cell-based.
The next test concerns DBTRG-05MG. The experiment in a line: Cytotoxicity against human DBTRG-05MG cells assessed as inhibition of cell viability incubated for 24 hrs by sulforhodamine B assay. The format is functional, cell-based. (In SRB staining, fixed cells bind dye roughly in proportion to their protein.)
Test [2] deals with MDA-MB-231. The experiment in a line: Cytotoxicity against human MDA-MB-231 cells assessed as inhibition of cell viability incubated for 24 hrs by sulforhodamine B assay. The format is functional, cell-based. The conditions noted are these: MDA-MB-231, 24 h.
A further test concerns MCF7. The experiment in a line: Anticancer activity against human MCF7 cells assessed as inhibition of cell viability incubated for 48 hrs by CCK-8 assay. The format is functional, cell-based. The conditions noted are these: MCF7, 48 h.
In test [3] the test system is MDA-MB-231. As to the kind of experiment: Anticancer activity against human MDA-MB-231 cells assessed as inhibition of cell viability incubated for 48 hrs by CCK-8 assay. The conditions noted are these: MDA-MB-231, 48 h. The test is classed as functional, cell-based.
For a further test, the system named is Calu-1. The experiment in a line: Induction of ferroptosis in human Calu-1 cells assessed as inhibition of (cystine-glutamate antiporter) system Xc- mediated cystine transport. The format is functional, cell-based.
Test [4] in a line: Induction of ferroptosis in human BJeLR cells assessed as inhibition of (cystine-glutamate antiporter) system Xc- mediated cystine transport. The test is classed as functional, cell-based. The conditions noted are these: bjelr cell.
The test system of test [5] is HT-1080. As to the kind of experiment: Induction of ferroptosis in human HT-1080 cells assessed as inhibition of (cystine-glutamate antiporter) system Xc- mediated cystine transport. The test is classed as functional, cell-based.
For a further test, the system named is HCT-116. The experiment in a line: Antitumor activity against human HCT-116 cells assessed as reduction in cell viability incubated for 48 hrs by CCK8 assay. The format is functional, cell-based. The conditions noted are these: HCT-116, 48 h.
Test [6] relates to SW480. As to the kind of experiment: Antitumor activity against human SW480 cells assessed as reduction in cell viability incubated for 48 hrs by CCK8 assay. The conditions noted are these: SW480, 48 h. The format is functional, cell-based.
A further test concerns RKO. As to the kind of experiment: Antitumor activity against human RKO cells assessed as reduction in cell viability incubated for 48 hrs by CCK8 assay. The test is classed as functional, cell-based.
For the next test, the system named is MEF. As to the kind of experiment: Antitumor activity against mouse MEF cells xenografted in nude mouse assessed as reduction in tumor weight at 40 mg/kg, po twice daily for 7 days relative to control. Further details: scale not given: the % may be the effect or the level left. The format is functional. The conditions noted are these: time 7 day.
For another test, the system named is SK-BR-3. As to the kind of experiment: Antiproliferative activity against human SK-BR-3 cells assessed as inhibition of cell proliferation incubated for 3 days by sulforhodamine B colorimetric assay. The test is classed as functional, cell-based. The conditions noted are these: SK-BR-3, 72 h.
A short description of test [7]: Antiproliferative activity against BALB/C mouse TBCP-1 cells assessed as inhibition of cell proliferation incubated for 3 days by sulforhodamine B colorimetric assay. The conditions noted are these: TBCP-1, 72 h. The format is functional, cell-based.
A further test concerns Glioblastoma cell line. As to the kind of experiment: Induction of ferroptosis in human primary glioblastoma cells assessed as decrease in GPX4 protein expression incubated for 48 hrs by Western blot analysis. The test is classed as functional, cell-based. (A western blot detects proteins with antibodies after separation by electrophoresis.)
Test [8] in a line: Induction of ferroptosis in human U-87 MG cells assessed as decrease in GPX4 protein expression incubated for 48 hrs by Western blot analysis. The test is classed as functional, cell-based, U-87MG ATCC.
The subject of a further test is BXPC-3. The experiment in a line: Anticancer activity against human BXPC-3 cells assessed as reduction in cell viability incubated for 48 hrs by MTT assay. The test is classed as functional, cell-based. The conditions noted are these: BXPC-3, 48 h.
A further test has as its system SW1990. The experiment in a line: Anticancer activity against human SW1990 cells assessed as reduction in cell viability incubated for 48 hrs by MTT assay. The conditions noted are these: SW1990, 48 h. The test is classed as functional, cell-based.
A short description of test [9]: Anticancer activity against human PHMLER expressing CD24low phenotype cells assessed as reduction in cell viability incubated for 72 hrs. The format is functional, cell-based.
In another test the test system is HepG2. The experiment in a line: Antitumor activity against human HepG2 cells assessed as inhibition of cell viability. The format is functional, cell-based.
In the next test the test system is Hep 3B2. As to the kind of experiment: Antitumor activity against human Hep3B cells assessed as inhibition of cell viability. The test is classed as functional, cell-based.
The subject of test [10] is HT-1080. As to the kind of experiment: Antitumor activity against human HT-1080 cells assessed as inhibition of cell viability. The format is functional, cell-based.
In the next test the test system is Huh-7. The experiment in a line: Antitumor activity against human Huh-7 cells assessed as inhibition of cell viability. The test is classed as functional, cell-based.
Test [11] has as its system SW480. The experiment in a line: Anticancer activity against human SW480 cells assessed as reduction in cell viability incubated for 24 hrs in presence of 10% FBS by CCK8 assay. The test is classed as functional, cell-based. The conditions noted are these: SW480, 24 h.
The subject of the next test is SGC-7901. The experiment in a line: Anticancer activity against human SGC-7901 cells assessed as inhibition of cell viability incubated for 72 hrs by MTT assay. The format is functional, cell-based. The conditions noted are these: SGC-7901, 72 h.
The next test deals with NCI-N87. As to the kind of experiment: Anticancer activity against human NCI-N87 cells assessed as inhibition of cell viability incubated for 72 hrs by MTT assay. The format is functional, cell-based. The conditions noted are these: NCI-N87, 72 h.
For a further test, the system named is BGC-823. The experiment in a line: Anticancer activity against human BGC-823 cells assessed as inhibition of cell viability incubated for 72 hrs by MTT assay. The test is classed as functional, cell-based. The conditions noted are these: BGC-823, 72 h.

Broadly, the IC50 is the concentration at which inhibition is half-maximal.

Consider `C[C@H]1[C@@H](O)O[C@@H]2O[C@@]3(C)CC[C@H]4[C@H](C)CC[C@@H]1[C@@]24OO3` [ARTENIMOL], for which the IC50 in [1] came to 50 µM; in the test on THP-1, 9.05 µM; with HEp-2, 18.1 µM; in the test on A 172 it was 66 µM; in the test on HL-60 it was 6.82 µM; with CNE, 18.4 µM.

Turning to `CC(C)(C)c1ccc(S(=O)(=O)/C=C/C#N)cc1` [BAY-11-7085], the results for the IC50 with DBTRG-05MG and in the test on MDA-MB-231 [2] were 5.53 µM and 4.31 µM, respectively.

Regarding `COc1cc(/C=C/C(=O)CC(=O)/C=C/c2ccc(O)c(OC)c2)ccc1O` [CURCUMIN], the IC50 in the test with MCF7 was 41.9 µM; with MDA-MB-231 [3], 53.5 µM.

For `CCOc1ccccc1-n1c(C(C)N2CCN(C(=O)COc3ccc(Cl)cc3)CC2)nc2ccccc2c1=O` (centres undefined) [ERASTIN], the IC50 in the test with Calu-1 stood at 0.14 µM; in test [4], 0.625 µM; with HT-1080 [5], 0.2 µM.

As to `C=CCc1ccc(O)c(-c2ccc(O)c(CC=C)c2)c1` [HONOKIOL], the IC50 in the test on HCT-116 was 47.6 µM; with SW480 [6], 15.1 µM; in the test on RKO it was 11.4 µM.

On to `C[C@H](CN1CCCC1)C(=O)c1ccc(C(F)(F)F)cc1` [LANPERISONE], for which the Activity with MEF is on record as 37%.

Consider `CCOc1cc2ncc(C#N)c(Nc3ccc(OCc4ccccn4)c(Cl)c3)c2cc1NC(=O)/C=C/CN(C)C` [NERATINIB], for which the values for the IC50 (in the test with SK-BR-3; in test [7]) were 0.0072 µM and 0.117 µM, respectively.

In the case of `COc1ccc(/C=C/C(=O)C(CC2CCC2)C(=O)/C=C/c2ccc(OC)c(OC)c2)cc1OC` [ROSOLUTAMIDE], the IC50 was 2 µM in the test on Glioblastoma cell line and < 5 µM in test [8].

Take `C[C@@H]1CC[C@@]2(OC1)O[C@H]1C[C@H]3[C@@H]4CC=C5C[C@@H](O)C[C@@H](O)[C@]5(C)[C@H]4CC[C@]3(C)[C@H]1[C@@H]2C` [RUSCOGENIN]: the IC50 in the test on BXPC-3 stood at 7.32 µM; in the test on SW1990, 8.14 µM.

As for `CC[C@@H](C(=O)[C@@H](C)[C@@H](O)[C@H](C)[C@@H]1O[C@@H]([C@@H](CC)C(=O)O)CC[C@@H]1C)[C@H]1O[C@]2(C=C[C@@H](O)[C@]3(CC[C@@](C)([C@H]4CC[C@](O)(CC)[C@H](C)O4)O3)O2)[C@H](C)C[C@@H]1C` [SALINOMYCIN], the IC50 in test [9] was determined as 1 µM.

Consider `CNC(=O)c1cc(Oc2ccc(NC(=O)Nc3ccc(Cl)c(C(F)(F)F)c3)cc2)ccn1` [SORAFENIB], for which the IC50 in the test with HepG2, with Hep 3B2, in the test on HT-1080 [10] and in the test with Huh-7 was < 10 µM throughout.

As to `O=C(O)c1cc(/N=N/c2ccc(S(=O)(=O)Nc3ccccn3)cc2)ccc1O` [SULFASALAZINE], the IC50 is 460 µM in the test on Calu-1 and 450 µM with HT-1080 [5].

As for `CCC(C)/C=C(\C)[C@H]1C(C)=C[C@@]2(C)C[C@@H](C)CC[C@@H]2[C@H]1C(=O)C1=C/C(=C/c2ccc(O)cc2)NC1=O` (some centres undefined) [TALAROCONVOLUTIN A], the IC50 in the test on SW480 [11] amounted to 8.15 µM.

Take `Cc1coc2c1C(=O)C(=O)c1c-2ccc2c1CCCC2(C)C` [TANSHINONE IIA]: the IC50 in the test with SGC-7901 worked out at 250 µM; with NCI-N87, 3.1 µM; in the test with BGC-823, 2.8 µM.
